This is an account of results in US20250186456A1, “PYRIMIDINE-FUSED CYCLIC COMPOUND AND PREPARATION METHOD AND USE THEREOF” (Genfleet Therapeutics (Shanghai) Inc., priority 2021, published 2025).

What all share (format): cell-based, human
The subject of assay [1] is p-ERK in AGS cells (KRAS G12D mutation). In words: Cell p-ERK assay (HTRF, Advance ERK phospho-T202/Y204 kit). The note with it: AGS cells, 3 hours incubation with compound, HTRF, read-out: AGS p-ERK IC50. An outline of the steps:
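Phospho-ERK (T202/Y204) measured by HTRF in lysates of human gastric AGS cells carrying KRAS G12D, after 3 h compound exposure at 0.1% DMSO over a 3.16-fold series. Percent inhibition relative to DMSO control and lysis-only blank; four-parameter curve fitting gave IC50.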
On the technique in general: TR-FRET usually uses a lanthanide donor and a delayed reading to cut background.

The test system of the next assay is AGS cells (KRAS G12D). Briefly: Cell proliferation inhibition assay, 3D, CellTiter-Glo 3D, AGS. To be noted: AGS 3D sphere model, 5 days incubation. In short, it runs like this:
(§1)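 Spheroids (800 AsPC-1 or 400 AGS cells/well; RPMI-1640 or F-12K with 10% FBS) formed overnight, then were dosed on day 2 with a 3.16-fold series at 0.1% DMSO. After 5 days, viability was read by CellTiter-Glo 3D luminescence, and IC50 came from four-parameter fits of inhibition versus DMSO control and medium blank.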
Background: Cellular ATP, detected with luciferase, serves as a proxy for viable cell number.

Assay [2] relates to AsPC-1 cells (KRAS G12D mutation). In words: Cell proliferation inhibition assay, 3D, CellTiter-Glo 3D, AsPC-1. The note with it: AsPC-1 3D sphere model, 5 days incubation. An outline of the steps:
as §1

Where two headings read alike, the source gives them in different places.

As for `C#Cc1c(F)ccc2cccc(-c3nc4c5c(nc(OCC67CCCN6CC(=C(F)F)C7)nc5c3F)N3C[C@H]5CC[C@H](N5)[C@H]3[C@H](C)O4)c12` (stereo partly drawn) [Example Z608, (5S,5aS,6S,9R)-12-((2-(difluoromethylene)tetrahydro-1H-pyrrolizin-7a (5H)-yl)methoxy)-2-(8-ethynyl-7-fluoronaphthalen-1-yl)-1-fluoro-5-methyl-5a,6,7,8,9,10-hexahydro-5H-4-oxa-3,10a, 11,13,14-pentaaza-6,9-methanonaphtho[1,8-ab]heptalene], the IC50 (usually the concentration needed to halve the response being measured) in assay [1] (Homo sapiens) was found to be 28.4 nM; in the assay on AGS cells (KRAS G12D) (Homo sapiens, 120 h) it was 82.3 nM; in assay [2] (Homo sapiens, ASPC1, 120 h) it was 146 nM.
Turning to `C#Cc1cccc2cccc(-c3nc4c5c(nc(OCC67CC(=C)CN6CC(=C)C7)nc5c3F)N3C[C@H]5CC[C@H](N5)[C@H]3[C@H](C)O4)c12` [Example Z551, (58,5aS,6S,9R)-12-((2,6-dimethylenetetrahydro-1H-pyrrolizin-7a (5H)-yl)methoxy)-2-(8-ethynylnaphthalen-1-yl)-1-fluoro-5-methyl-5a,6,7,8,9,10-hexahydro-5H-4-oxa-3,10a,11,13,14-pentaaza-6,9-methanonaphtho[1,8-ab]heptalene], the half-inhibitory concentration (IC50) in assay [1] (Homo sapiens) stood at 61 nM; in the assay on AGS cells (KRAS G12D) (Homo sapiens, 120 h), 45.4 nM; in assay [2] (Homo sapiens, ASPC1, 120 h), 170 nM.
The matching figures for `C#Cc1c(F)ccc2cccc(-c3nc4c5c(nc(OCC67CC(O)CN6CCC7=C)nc5c3F)N3C[C@H]5CC[C@H](N5)[C@H]3[C@H](C)O4)c12` (stereo partly drawn) [Example Z674, 7a-((((5S,5aS,6S,9R)-2-(8-ethynyl-7-fluoronaphthalen-1-yl)-1-fluoro-5-methyl-5a,6,7,8,9,10-hexahydro-5H-4-oxa-3,10a, 11, 13, 14-pentaaza-6,9-methanonaphtho[1,8-ab]heptalen-12-yl)oxy)methyl)-7-methylenehexahydro-1H-pyrrolizin-2-ol]: 10.7 nM, 108 nM and 475 nM.
The like results for `C#Cc1c(F)ccc2cccc(-c3nc4c5c(nc(OC[C@]67C[C@@H](F)CN6CCC7=C)nc5c3F)N3C[C@H]5CC[C@H](N5)[C@H]3[C@H](C)O4)c12` (single isomer, unassigned) [Example Z689] were, in that order, 6.61 nM, 19.3 nM and 17.4 nM.
The matching figures for `C#Cc1cccc2cc(N)nc(-c3nc4c5c(nc(OCC67CC(=C)CN6C[C@H](F)C7)nc5c3F)N3C[C@H]5CC[C@H](N5)[C@H]3[C@H](C)O4)c12` (stereo partly drawn) [Example Z685, 8-Ethynyl-1-((5S,5aS,68,9R)-1-Fluoro-12-(((2R)-2-Fluoro-6-Methylenetetrahydro-1H-Pyrrolizin-7a (5H)-Yl)Methoxy)-5-Methyl-5a,6,7,8,9,10-Hexahydro-5H-4-Oxa-3,10a,11,13,14-Pentaaza-6,9-Methanonaphtho[1,8-Ab]Heptalen-2-Yl) Isoquinolin-3-Amine]: 30.3 nM, 145 nM and 258 nM.
`C#Cc1cccc2cc(N)cc(-c3nc4c5c(nc(OC[C@]67CCCN6CC(F)(F)C7)nc5c3F)N3C[C@H]5CC[C@H](N5)[C@H]3[C@H](C)O4)c12` [Example Z734, 4-((5S,5aS,6S,9R)-12-(((R)-2,2-difluorotetrahydro-1H-pyrrolizin-7a (5H)-yl)methoxy)-1-fluoro-5-methyl-5a,6,7,8,9,10-hexahydro-5H-4-oxa-3,10a, 11,13, 14-pentaaza-6,9-methanonaphtho[1,8-ab]heptalene-2-yl)-5-ethynylnaphthalen-2-amine]: the concentration for half-maximal inhibition (IC50) in assay [1] (Homo sapiens) is 3.42 nM; with AGS cells (KRAS G12D) (Homo sapiens, 120 h), 17.2 nM; in assay [2] (Homo sapiens, ASPC1, 120 h), 12.1 nM.
For the molecule `C#Cc1c(F)ccc2cccc(-c3nc4c5c(nc(OCC67CC(=C)CN6CCC76CC6)nc5c3F)N3C[C@H]5CC[C@H](N5)[C@H]3[C@H](C)O4)c12` (stereo partly drawn) [Example Z602, (58,5aS,6S,9R)-2-(8-ethynyl-7-fluoronaphthalen-1-yl)-1-fluoro-5-methyl-12-((6′-methylenetetrahydrospiro[cyclopropane-1, 1′-pyrrolizin]-7a′ (5′H)-yl)methoxy)-5a,6,7,8,9,10-hexahydro-5H-4-oxa-3,10a,11,13,14-pentaaza-6,9-methanonaphtho[1,8-ab]heptalene], the figures for the 50% inhibitory concentration (IC50) (in assay [1]; in the assay on AGS cells (KRAS G12D); in assay [2]) were 34.1 nM, 26.5 nM and 90.4 nM, respectively.
As for `C#Cc1cccc2cc(N)cc(-c3nc4c5c(nc(OC[C@@]67CCCN6CC(F)(F)C7)nc5c3F)N3C[C@H]5CC[C@H](N5)[C@H]3[C@H](C)O4)c12` (single isomer, unassigned) [Example Z735], the IC50 in assay [1] (Homo sapiens) was found to be 5.62 nM; in the assay with AGS cells (KRAS G12D) (Homo sapiens, 120 h), 35.2 nM; in assay [2] (Homo sapiens, ASPC1, 120 h) it was 18.1 nM.
The matching figures for `C#Cc1c(F)ccc2cccc(-c3nc4c5c(nc(OCC67CCCN6C6(CC6)CC7)nc5c3F)N3C[C@H]5CC[C@H](N5)[C@H]3[C@H](C)O4)c12` (stereo partly drawn) [Example Z631, (5S,5aS,6S,9R)-2-(8-Ethynyl-7-Fluoronaphthalen-1-Yl)-1-Fluoro-5-Methyl-12-((Tetrahydrospiro[Cyclopropane-1,3′-Pyrrolizin]-7a′ (5′H)-Yl)Methoxy)-5a,6,7,8,9,10-Hexahydro-5H-4-Oxa-3,10a,11,13,14-Pentaaza-6,9-Methanonaphtho[1,8-Ab]Heptalene]: 91.9 nM, 201 nM and 254 nM.
The like results for `C#Cc1cccc2cc(N)cc(-c3nc4c5c(nc(OC[C@@H]6CCCN6CC(F)F)nc5c3F)N3C[C@H]5CC[C@H](N5)[C@H]3[C@H](C)O4)c12` [Example Z733, 4-((5S,5aS,6S,9R)-12-(((S)-1-(2,2-difluoroethyl)pyrrolidin-2-yl)methoxy)-1-fluoro-5-methyl-5a,6,7,8,9,10-hexahydro-5H-4-oxa-3,10a,11,13,14-pentaaza-6,9-methanonaphtho[1,8-ab]heptalen-2-yl)-5-ethynylnaphthalen-2-amine] were, in that order, 76 nM, 297 nM and 267 nM.
Turning to `C#Cc1c(F)ccc2cccc(-c3nc4c5c(nc(OC[C@@]67CC(=C)CN6CC[C@@H]7OC)nc5c3F)N3C[C@H]5CC[C@H](N5)[C@H]3[C@H](C)O4)c12` (single isomer, unassigned) [Example Z696], the figures for the half-maximal inhibitory concentration (IC50) (in assay [1]; in the assay on AGS cells (KRAS G12D); in assay [2]) were 72.6 nM, 598 nM and 694 nM, respectively.
With `C#Cc1c(F)ccc2cc(O)cc(-c3nc4c5c(nc(OCC67CC(=C)CN6CC(=C)C7)nc5c3F)N3C[C@H]5CC[C@H](N5)[C@H]3[C@H](C)O4)c12` [Example Z553, 4-((5S,5aS,6S,9R)-12-((2,6-dimethylenetetrahydro-1H-pyrrolizin-7a (5H)-yl)methoxy)-1-fluoro-5-methyl-5a,6,7,8,9,10-hexahydro-5H-4-oxa-3,10a, 11,13,14-pentaaza-6,9-methanonaphtho[1,8-ab]heptalen-2-yl)-5-ethynyl-6-fluoronaphthalen-2-ol], the 50% inhibitory concentration (IC50) is 0.48 nM in assay [1] (Homo sapiens); 0.53 nM in the assay with AGS cells (KRAS G12D) (Homo sapiens, 120 h); 9.13 nM in assay [2] (Homo sapiens, ASPC1, 120 h).
The matching figures for `C#Cc1cccc2cc(N)cc(-c3nc4c5c(nc(O[C@@H]6CCC[C@H]6O)nc5c3F)N3C[C@H]5CC[C@H](N5)[C@H]3[C@H](C)O4)c12` [Example Z718, (1R,2R)-2-(((5S,5aS,6S,9R)-2-(3-amino-8-ethynylnaphthalen-1-yl)-1-fluoro-5-methyl-5a,6,7,8,9,10-hexahydro-5H-4-oxa-3,10a,11,13,14-pentaaza-6,9-methanonaphtho[1,8-ab]heptalen-12-yl)oxy)cyclopentan-1-ol]: 157 nM, 455 nM and 429 nM.
On to `C#Cc1c(F)ccc2cccc(-c3nc4c5c(nc(OC[C@]67CCCN6CCC7=C)nc5c3F)N3C[C@H]5CC[C@H](N5)[C@H]3[C@H](C(F)F)O4)c12` [Example Z648, (5R,5aS,6S,9R)-5-(difluoromethyl)-2-(8-etbynyl-7-fluoronaphthalen-1-yl)-1-fluoro-12-(((R)-1-methylenetetrahydro-1H-pyrrolizin-7a (5H)-yl)methoxy)-5a,6,7,8,9,10-hexahydro-5H-4-oxa-3,10a, 11,13,14-pentaaza-6,9-methanonaphtho[1,8-ab]heptalene], for which the IC50 in assay [1] stood at 14.6 nM; with AGS cells (KRAS G12D), 39.1 nM; in assay [2], 53.5 nM.
In the case of `C#Cc1cc(F)cc2cccc(-c3nc4c5c(nc(OCC67CC(=C)CN6CC(=C)C7)nc5c3F)N3C[C@H]5CC[C@H](N5)[C@H]3[C@H](C)O4)c12` [Example Z550, (5S,5aS,6S,9R)-12-((2,6-dimethylenetetrahydro-1H-pyrrolizin-7a (5H)-yl)methoxy)-2-(8-ethynyl-6-fluoronaphthalen-1-yl)-1-fluoro-5-methyl-5a,6,7,8,9,10-hexahydro-5H-4-oxa-3,10a, 11,13,14-pentaaza-6,9-methanonaphtho[1,8-ab]heptalene], the IC50 was 91.2 nM in assay [1] (Homo sapiens); 109 nM with AGS cells (KRAS G12D) (Homo sapiens, 120 h); 394 nM in assay [2] (Homo sapiens, ASPC1, 120 h).
The matching figures for `C#Cc1c(F)ccc2cccc(-c3nc4c5c(nc(OCC67CC(=C)CN6C[C@H](OC)C7)nc5c3F)N3C[C@H]5CC[C@H](N5)[C@H]3[C@H](C)O4)c12` (stereo partly drawn) [Example Z691, (5S,5aS,6S,9R)-2-(8-Ethynyl-7-Fluoronaphthalen-1-Yl)-1-Fluoro-12-(((2R)-2-Methoxy-6-Methylenetetrahydro-1H-Pyrrolizin-7a (5H)-Yl)Methoxy)-5-Methyl-5a,6,7,8,9,10-Hexahydro-5H-4-Oxa-3,10a,11,13,14-Pentaaza-6,9-Methanonaphtho[1,8-Ab]Heptalene]: 14.2 nM, 54.6 nM and 87.9 nM.
